The numbers were not newly measured in US5424332A, “Pharmaceutical composition and process for the production thereof” (priority 1993, dated 1995), which cites them from elsewhere.

The test system of this data set is aflotoxin toxic effects.

With `O=C(O)/C=C/C(=O)O` [fumaric acid], the “toxic effects of aflotoxin” value is recorded as “reduces the toxic effects”.
